{"source": "ChEMBL document CHEMBL2396526", "about": "“Chromenylchalcones showing cytotoxicity on human colon cancer cell lines and in silico docking with aurora kinases” (Bioorg Med Chem, 2013)"}
{"test_system": "HCT-116", "experiment": "Cytotoxicity against human HCT116 cells by MTT assay", "format": "functional, cell-based", "details": "not given", "units": {"IC50": "µM"}}
{"smiles": "O=C(O[C@H]1Cc2c(O)cc(O)cc2O[C@@H]1c1ccc(O)c(O)c1)c1cc(O)c(O)c(O)c1", "note": "[CATECHIN GALLATE]", "IC50": 53}
{"smiles": "O=C(O[C@@H]1Cc2c(O)cc(O)cc2O[C@@H]1c1ccc(O)c(O)c1)c1cc(O)c(O)c(O)c1", "note": "[EPICATECHIN GALLATE]", "IC50": 76}
{"test_system": "HCT-116", "experiment": "Cytotoxicity against human HCT116 cells assessed as cell survival at 5 to 40 uM after 7 days by crystal violet staining assay", "format": "functional, cell-based", "details": "HCT-116, 168 h", "units": {"IC50": "µM"}}
{"smiles": "COc1ccc2c(c1)C=C(C(=O)/C=C/c1cc(OC)c(OC)cc1OC)CO2", "IC50": 2.5}
{"smiles": "COc1ccc(/C=C/C(=O)C2=Cc3cc(OC)ccc3OC2)cc1", "IC50": 0.59}
{"smiles": "COc1ccc(C(=O)/C=C/C2=Cc3cc(OC)ccc3OC2)cc1", "IC50": 7.95}
{"smiles": "COc1ccc2c(c1)C=C(C(=O)/C=C/c1ccccc1OC)CO2", "IC50": 1.62}
{"smiles": "COc1ccc2c(c1)C=C(/C=C/C(=O)C1=Cc3cc(OC)ccc3OC1)CO2", "IC50": 12.9}
{"smiles": "COc1ccc2c(c1)C=C(C(=O)/C=C/c1ccc(OC)cc1OC)CO2", "IC50": 3.97}
{"smiles": "COc1ccc2c(c1)C=C(C(=O)/C=C/C1=Cc3cccc(OC)c3OC1)CO2", "IC50": 7.19}
{"smiles": "COc1ccccc1C(=O)/C=C/C1=Cc2cc(Br)ccc2OC1", "IC50": 6.13}
{"smiles": "COc1ccc(C(=O)/C=C/C2=Cc3ccc(OC)cc3OC2)cc1", "IC50": 10.5}
{"smiles": "COc1cc(OC)cc(C(=O)/C=C/C2=Cc3cc(OC)ccc3OC2)c1", "IC50": 35.5}
{"smiles": "COc1cc(OC)cc(C(=O)/C=C/C2=Cc3cc(Br)ccc3OC2)c1", "IC50": 3.4}
{"smiles": "COc1cccc(C(=O)/C=C/C2=Cc3cc(Br)ccc3OC2)c1", "IC50": 4.56}
{"smiles": "COc1cc(/C=C/C(=O)C2=Cc3cc(OC)ccc3OC2)cc(OC)c1", "IC50": 0.33}
{"smiles": "COc1ccc2c(c1)C=C(/C=C/C(=O)c1ccccc1OC)CO2", "IC50": 1.04}
{"smiles": "COc1ccc2c(c1)C=C(C(=O)/C=C/C1=Cc3ccc(OC)cc3OC1)CO2", "IC50": 18.8}
